Experimental findings from article PMC6199744, “Development of Chemical Proteomics for the Folateome and Analysis of the Kinetoplastid Folateome” (ACS Infectious Diseases, 2018) are described below.

Structures are written as SMILES. Read-outs that look alike come from different tables or passages of the source.

What all share (assay type): binding
In test [1] the target is T1, HeLa cell extract proteins (Homo sapiens, UniProt P42356).
T1 construct: endogenous in cells; host or cells: HeLa cell extract

Test [2] addresses T2, HeLa cell extract proteins (Homo sapiens, UniProt P47712).
T2 construct: endogenous in cells; host or cells: HeLa cell extract
T2 sequence (P47712 1-749): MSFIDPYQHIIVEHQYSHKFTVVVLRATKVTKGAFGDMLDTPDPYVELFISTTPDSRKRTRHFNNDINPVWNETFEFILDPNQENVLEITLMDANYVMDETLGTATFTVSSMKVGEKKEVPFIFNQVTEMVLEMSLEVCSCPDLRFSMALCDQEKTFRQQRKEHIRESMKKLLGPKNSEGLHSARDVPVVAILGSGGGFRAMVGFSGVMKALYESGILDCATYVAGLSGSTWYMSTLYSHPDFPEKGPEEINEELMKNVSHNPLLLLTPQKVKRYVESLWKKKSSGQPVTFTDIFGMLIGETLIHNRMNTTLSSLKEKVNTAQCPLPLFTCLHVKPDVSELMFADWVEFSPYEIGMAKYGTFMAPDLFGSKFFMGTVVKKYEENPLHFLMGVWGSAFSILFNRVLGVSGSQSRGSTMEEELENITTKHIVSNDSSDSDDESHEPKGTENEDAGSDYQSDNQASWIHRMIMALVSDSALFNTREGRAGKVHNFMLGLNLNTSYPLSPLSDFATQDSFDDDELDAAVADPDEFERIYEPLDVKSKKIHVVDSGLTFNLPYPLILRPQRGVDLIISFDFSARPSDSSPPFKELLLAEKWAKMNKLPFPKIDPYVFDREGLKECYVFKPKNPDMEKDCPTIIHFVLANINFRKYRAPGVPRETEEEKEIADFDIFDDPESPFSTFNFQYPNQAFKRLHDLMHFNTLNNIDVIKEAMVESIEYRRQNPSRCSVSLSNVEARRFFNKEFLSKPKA

For test [3], the target named is T3, HeLa cell extract proteins (Homo sapiens, UniProt Q7L1Q6).
T3 construct: endogenous in cells; host or cells: HeLa cell extract
T3 sequence (Q7L1Q6 1-419): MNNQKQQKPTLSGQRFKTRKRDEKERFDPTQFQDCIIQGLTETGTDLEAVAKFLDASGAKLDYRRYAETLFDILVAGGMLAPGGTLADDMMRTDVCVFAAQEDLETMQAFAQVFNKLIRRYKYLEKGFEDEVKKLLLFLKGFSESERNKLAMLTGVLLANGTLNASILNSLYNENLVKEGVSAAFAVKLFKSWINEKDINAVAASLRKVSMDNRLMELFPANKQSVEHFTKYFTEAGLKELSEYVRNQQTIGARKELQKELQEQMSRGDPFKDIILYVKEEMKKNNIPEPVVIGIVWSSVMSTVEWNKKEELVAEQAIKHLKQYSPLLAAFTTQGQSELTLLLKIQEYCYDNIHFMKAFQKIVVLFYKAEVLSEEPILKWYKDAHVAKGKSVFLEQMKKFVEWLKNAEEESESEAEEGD

In test [4] the target is T4, HeLa cell extract proteins (Homo sapiens, UniProt P28072).
T4 construct: endogenous in cells; host or cells: HeLa cell extract
T4 sequence (P28072 1-239): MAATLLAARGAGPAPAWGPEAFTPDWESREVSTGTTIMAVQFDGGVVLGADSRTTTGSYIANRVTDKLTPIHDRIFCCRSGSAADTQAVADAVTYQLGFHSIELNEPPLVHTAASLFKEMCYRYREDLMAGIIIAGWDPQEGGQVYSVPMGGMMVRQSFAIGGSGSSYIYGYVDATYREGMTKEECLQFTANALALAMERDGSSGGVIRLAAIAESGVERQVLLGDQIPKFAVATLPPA

For test [5], the target named is T5, HeLa cell extract proteins (Homo sapiens, UniProt Q92616).
T5 construct: endogenous in cells; host or cells: HeLa cell extract

For test [6], the target named is T6, HeLa cell extract proteins (Homo sapiens, UniProt Q96AE4).
T6 construct: endogenous in cells; host or cells: HeLa cell extract
T6 sequence (Q96AE4 1-644): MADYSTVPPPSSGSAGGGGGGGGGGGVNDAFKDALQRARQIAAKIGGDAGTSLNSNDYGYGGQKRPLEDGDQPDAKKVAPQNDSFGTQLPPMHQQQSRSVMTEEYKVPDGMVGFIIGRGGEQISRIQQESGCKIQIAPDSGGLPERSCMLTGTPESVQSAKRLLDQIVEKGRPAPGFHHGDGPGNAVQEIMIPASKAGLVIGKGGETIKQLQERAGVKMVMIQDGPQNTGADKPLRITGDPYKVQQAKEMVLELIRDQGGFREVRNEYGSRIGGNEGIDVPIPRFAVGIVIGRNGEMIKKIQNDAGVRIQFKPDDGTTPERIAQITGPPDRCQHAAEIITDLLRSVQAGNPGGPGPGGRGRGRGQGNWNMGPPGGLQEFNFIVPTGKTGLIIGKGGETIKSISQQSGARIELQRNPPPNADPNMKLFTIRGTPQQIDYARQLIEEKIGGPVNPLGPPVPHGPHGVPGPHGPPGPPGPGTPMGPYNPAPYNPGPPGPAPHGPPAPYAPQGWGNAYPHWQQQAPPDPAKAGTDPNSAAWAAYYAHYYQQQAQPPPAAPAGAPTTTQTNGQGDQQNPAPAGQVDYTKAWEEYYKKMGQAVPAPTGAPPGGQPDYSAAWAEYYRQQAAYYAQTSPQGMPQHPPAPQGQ

T1 sequence (P42356 whole entry): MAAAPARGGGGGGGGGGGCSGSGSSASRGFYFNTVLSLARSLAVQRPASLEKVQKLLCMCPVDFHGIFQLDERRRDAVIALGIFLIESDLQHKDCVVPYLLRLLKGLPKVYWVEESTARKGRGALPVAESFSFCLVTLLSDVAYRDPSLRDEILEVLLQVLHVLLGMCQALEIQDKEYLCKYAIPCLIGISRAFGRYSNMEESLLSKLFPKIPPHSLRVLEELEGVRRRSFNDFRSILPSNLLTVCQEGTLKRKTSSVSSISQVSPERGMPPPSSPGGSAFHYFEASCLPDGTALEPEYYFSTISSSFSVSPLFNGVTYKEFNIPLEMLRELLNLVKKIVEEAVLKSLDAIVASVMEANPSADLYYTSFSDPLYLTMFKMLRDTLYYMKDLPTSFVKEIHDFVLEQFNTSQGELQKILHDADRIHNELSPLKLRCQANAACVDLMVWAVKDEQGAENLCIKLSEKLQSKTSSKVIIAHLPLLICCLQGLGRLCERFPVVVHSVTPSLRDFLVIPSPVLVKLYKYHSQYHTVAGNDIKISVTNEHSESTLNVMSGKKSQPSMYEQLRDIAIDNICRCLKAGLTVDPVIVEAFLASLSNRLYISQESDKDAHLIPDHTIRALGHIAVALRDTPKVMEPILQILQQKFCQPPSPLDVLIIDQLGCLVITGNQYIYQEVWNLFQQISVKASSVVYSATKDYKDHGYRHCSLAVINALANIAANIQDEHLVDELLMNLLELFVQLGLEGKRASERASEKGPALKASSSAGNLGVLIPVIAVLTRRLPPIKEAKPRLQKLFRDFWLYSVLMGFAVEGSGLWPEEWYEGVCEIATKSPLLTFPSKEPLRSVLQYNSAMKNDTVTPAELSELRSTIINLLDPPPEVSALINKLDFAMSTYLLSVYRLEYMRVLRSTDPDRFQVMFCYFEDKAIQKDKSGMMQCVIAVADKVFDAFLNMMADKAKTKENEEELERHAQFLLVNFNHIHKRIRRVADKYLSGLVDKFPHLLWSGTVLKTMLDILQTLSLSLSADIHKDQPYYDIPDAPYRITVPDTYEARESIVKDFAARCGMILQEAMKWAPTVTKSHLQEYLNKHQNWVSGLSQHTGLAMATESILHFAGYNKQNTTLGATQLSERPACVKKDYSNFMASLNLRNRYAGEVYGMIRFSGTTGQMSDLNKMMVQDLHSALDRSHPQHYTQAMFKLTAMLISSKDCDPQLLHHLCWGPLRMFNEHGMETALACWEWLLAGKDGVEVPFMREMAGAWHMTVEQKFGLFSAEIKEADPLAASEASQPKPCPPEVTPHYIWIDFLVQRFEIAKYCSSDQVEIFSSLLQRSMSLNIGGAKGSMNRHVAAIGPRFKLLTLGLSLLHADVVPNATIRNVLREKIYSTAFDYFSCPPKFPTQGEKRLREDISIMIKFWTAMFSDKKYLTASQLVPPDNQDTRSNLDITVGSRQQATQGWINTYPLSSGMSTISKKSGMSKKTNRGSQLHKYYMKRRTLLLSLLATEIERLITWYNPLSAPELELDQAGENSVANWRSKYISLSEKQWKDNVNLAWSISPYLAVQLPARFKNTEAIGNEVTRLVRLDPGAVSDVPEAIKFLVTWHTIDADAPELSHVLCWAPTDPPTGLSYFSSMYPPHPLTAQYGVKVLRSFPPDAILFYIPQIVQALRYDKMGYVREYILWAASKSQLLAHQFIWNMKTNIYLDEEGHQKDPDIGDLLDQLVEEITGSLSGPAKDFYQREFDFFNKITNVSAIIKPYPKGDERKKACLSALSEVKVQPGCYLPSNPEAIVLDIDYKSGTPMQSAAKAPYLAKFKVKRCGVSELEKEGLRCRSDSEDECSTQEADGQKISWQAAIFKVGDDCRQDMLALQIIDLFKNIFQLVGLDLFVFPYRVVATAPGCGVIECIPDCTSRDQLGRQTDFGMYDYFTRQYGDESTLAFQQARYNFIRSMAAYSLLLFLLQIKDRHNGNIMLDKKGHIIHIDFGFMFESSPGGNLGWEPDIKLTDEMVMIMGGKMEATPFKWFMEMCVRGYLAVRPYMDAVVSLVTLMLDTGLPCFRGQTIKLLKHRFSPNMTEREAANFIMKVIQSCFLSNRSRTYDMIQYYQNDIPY
T5 sequence (Q92616 whole entry): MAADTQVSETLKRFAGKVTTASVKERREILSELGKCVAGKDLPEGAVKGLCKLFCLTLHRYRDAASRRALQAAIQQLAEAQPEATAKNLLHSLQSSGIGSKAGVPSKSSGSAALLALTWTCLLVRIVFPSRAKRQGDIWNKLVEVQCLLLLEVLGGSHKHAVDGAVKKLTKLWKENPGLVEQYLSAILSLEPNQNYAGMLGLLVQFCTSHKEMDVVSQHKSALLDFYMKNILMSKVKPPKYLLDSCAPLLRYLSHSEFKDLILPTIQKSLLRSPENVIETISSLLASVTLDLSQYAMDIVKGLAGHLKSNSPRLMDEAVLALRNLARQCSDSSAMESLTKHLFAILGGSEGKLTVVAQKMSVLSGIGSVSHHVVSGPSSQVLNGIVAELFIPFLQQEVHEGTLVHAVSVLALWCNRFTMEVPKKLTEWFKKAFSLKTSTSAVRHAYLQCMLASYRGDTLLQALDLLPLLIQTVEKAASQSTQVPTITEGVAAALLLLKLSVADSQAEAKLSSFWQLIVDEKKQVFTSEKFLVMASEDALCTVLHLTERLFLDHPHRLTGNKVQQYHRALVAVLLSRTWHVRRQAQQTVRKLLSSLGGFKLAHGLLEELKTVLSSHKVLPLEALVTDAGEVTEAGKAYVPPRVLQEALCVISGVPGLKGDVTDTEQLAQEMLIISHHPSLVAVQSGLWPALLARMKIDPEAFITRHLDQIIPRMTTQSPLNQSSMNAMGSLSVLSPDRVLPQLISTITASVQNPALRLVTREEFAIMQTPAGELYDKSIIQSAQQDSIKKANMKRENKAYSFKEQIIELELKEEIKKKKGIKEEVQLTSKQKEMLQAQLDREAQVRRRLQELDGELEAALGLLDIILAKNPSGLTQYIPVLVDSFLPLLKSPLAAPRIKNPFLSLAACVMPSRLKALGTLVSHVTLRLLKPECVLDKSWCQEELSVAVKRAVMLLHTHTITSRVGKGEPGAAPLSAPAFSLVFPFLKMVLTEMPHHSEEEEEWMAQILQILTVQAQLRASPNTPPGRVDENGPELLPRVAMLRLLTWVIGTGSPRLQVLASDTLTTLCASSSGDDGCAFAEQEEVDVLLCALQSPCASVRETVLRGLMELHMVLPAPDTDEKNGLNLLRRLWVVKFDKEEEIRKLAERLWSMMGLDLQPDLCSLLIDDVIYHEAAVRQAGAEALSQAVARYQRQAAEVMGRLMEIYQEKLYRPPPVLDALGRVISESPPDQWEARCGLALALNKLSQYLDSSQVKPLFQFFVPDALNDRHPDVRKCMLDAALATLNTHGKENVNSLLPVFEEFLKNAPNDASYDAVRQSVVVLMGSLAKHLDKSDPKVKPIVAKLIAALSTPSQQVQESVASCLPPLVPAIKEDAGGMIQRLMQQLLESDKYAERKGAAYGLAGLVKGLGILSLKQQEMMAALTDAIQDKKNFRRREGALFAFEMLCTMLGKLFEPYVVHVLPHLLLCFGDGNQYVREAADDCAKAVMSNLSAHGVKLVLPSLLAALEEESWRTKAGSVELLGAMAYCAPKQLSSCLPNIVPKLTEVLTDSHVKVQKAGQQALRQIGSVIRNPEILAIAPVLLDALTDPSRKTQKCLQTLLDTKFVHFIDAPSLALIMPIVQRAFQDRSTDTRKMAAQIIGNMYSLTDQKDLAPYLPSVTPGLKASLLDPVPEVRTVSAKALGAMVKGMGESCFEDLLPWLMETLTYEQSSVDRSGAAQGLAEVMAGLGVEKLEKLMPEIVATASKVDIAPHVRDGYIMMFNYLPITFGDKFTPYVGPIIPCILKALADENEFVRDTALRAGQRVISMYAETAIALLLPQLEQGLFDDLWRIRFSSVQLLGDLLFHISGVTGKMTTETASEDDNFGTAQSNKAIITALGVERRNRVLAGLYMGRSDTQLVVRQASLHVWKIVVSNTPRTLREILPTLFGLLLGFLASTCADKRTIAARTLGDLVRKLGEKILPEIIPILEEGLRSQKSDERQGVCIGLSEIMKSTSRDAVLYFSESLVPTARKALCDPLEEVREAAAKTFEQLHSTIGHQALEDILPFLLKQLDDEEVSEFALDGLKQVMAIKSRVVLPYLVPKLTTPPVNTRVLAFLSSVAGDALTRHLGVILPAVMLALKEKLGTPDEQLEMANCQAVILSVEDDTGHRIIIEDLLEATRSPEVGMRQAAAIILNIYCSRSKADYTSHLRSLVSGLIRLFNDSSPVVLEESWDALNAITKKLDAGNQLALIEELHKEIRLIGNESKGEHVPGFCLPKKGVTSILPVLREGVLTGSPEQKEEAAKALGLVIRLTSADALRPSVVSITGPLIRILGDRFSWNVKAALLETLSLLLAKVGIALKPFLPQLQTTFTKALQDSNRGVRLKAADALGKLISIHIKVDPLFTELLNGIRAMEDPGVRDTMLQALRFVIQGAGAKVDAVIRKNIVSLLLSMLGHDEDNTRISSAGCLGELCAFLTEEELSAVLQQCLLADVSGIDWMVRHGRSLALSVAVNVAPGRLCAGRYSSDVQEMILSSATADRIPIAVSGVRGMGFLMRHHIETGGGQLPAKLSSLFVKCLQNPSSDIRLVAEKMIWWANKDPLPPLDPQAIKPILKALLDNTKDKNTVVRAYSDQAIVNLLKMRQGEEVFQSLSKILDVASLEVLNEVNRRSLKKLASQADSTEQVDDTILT

Regarding `Nc1nc2cccc(-c3ccccc3)c2n1Cc1ccc(Cl)c(Cl)c1` [compound 3], the “fold changes relative to vehicle control” value worked out at 0.77 in test [1] (captured protein PI4KA, HeLa); 0.91 in test [2] (protein PLA2G4A, HeLa); 0.91 in test [3] (protein BZW1, HeLa); 1.09 in test [4] (protein PSMB6, HeLa); 1.16 in test [5] (HeLa, protein GCN1L1); 1 in test [6] (protein FUBP1, HeLa).

Consider `NCCOCCOCC(=O)Nc1nc2ncc(CNc3ccc(C(=O)NC(CCC(=O)O)C(=O)O)cc3)nc2c(=O)[nH]1` (stereo not drawn) [compound 6], for which the “fold changes relative to vehicle control” value is 0.94 in test [1] (protein PI4KA, HeLa); 1.18 in test [2] (HeLa, protein PLA2G4A); 1.21 in test [3] (HeLa, protein BZW1); 1.29 in test [4] (HeLa, protein PSMB6); 1.15 in test [5] (HeLa, captured protein GCN1L1); 1.28 in test [6] (HeLa, captured protein FUBP1).

In the case of `Nc1nc2[nH]cc(CCc3ccc(C(=O)N[C@@H](CCC(=O)O)C(=O)O)cc3)c2c(=O)[nH]1` [PTX, pemetrexed], the “fold changes relative to vehicle control” value worked out at 0.73 in test [1]; 1.13 in test [2]; 1.09 in test [3]; 1.1 in test [4]; 1.02 in test [5]; 1.17 in test [6].

As for `Nc1nc2c(c(=O)[nH]1)N(C=O)C(CNc1ccc(C(=O)N[C@@H](CCC(=O)O)C(=O)O)cc1)CN2` (stereo partly drawn) [LEU, leucovorin], the “fold changes relative to vehicle control” value was determined as 0.82 in test [1] (protein PI4KA, HeLa); 0.94 in test [2] (HeLa, protein PLA2G4A); 1.01 in test [3] (HeLa, protein BZW1); 1.01 in test [4] (HeLa, protein PSMB6); 1.04 in test [5] (HeLa, captured protein GCN1L1); 1.09 in test [6] (HeLa, captured protein FUBP1).

`CCCCCCOc1ccc(Cc2cnc(N)nc2N)cc1` [compound 1]: the “fold changes relative to vehicle control” value in test [1] (captured protein PI4KA, HeLa) came to 0.71; in test [2] (protein PLA2G4A, HeLa) it was 1; in test [3] (protein BZW1, HeLa), 1.09; in test [4] (protein PSMB6, HeLa), 1.31; in test [5] (HeLa, protein GCN1L1), 1.07; in test [6] (protein FUBP1, HeLa) it was 1.24.

`NCCCNc1ccc(C(=O)NC(CCC(=O)O)C(=O)O)cc1` (stereo not drawn) [compound 7]: the “fold changes relative to vehicle control” value is on record as 1.02 in test [1] (protein PI4KA, HeLa); 0.88 in test [2] (HeLa, protein PLA2G4A); 0.98 in test [3] (HeLa, protein BZW1); 1.02 in test [4] (HeLa, protein PSMB6); 1.15 in test [5] (HeLa, captured protein GCN1L1); 1 in test [6] (HeLa, captured protein FUBP1).

Take `CCCCCCOc1cccc(Cc2cnc(N)nc2N)c1` [compound 2]: the “fold changes relative to vehicle control” value is listed as 1.14 in test [1] (captured protein PI4KA, HeLa); 1.72 in test [2] (protein PLA2G4A, HeLa); 1.52 in test [3] (protein BZW1, HeLa); 1.36 in test [4] (protein PSMB6, HeLa); 1.14 in test [5] (HeLa, protein GCN1L1); 1.48 in test [6] (protein FUBP1, HeLa).
